Results from patent publication US9296757B2, “Substituted benzothienopyrimidines” (BAYER PHARMA AKTIENGESELLSCHAFT, priority 2012, dated 2016).

Biological target: human full-length MKNK1 (Homo sapiens (Human), UniProt Q9BUB5, T344D)
Assay: MKNK1 kinase high ATP assay (TR-FRET)
Type: biochemical
Conditions: high ATP (2 mM final), 15 min preincubation with enzyme
Description: MKNK1-inhibitory activity at high ATP of compounds of the present invention after their preincubation with MKNK1 was quantified employing the TR-FRET-based MKNK1 high ATP assay as described in the following paragraphs.
A recombinant fusion protein of Glutathione-S-Transferase (GST, N-terminally) and human full-length MKNK1 (amino acids 1-424 and T344D of accession number BAA 19885.1), expressed in insect cells using baculovirus expression system and purified via glutathione sepharose affinity chromatography, was purchased from Carna Biosciences (product no 02-145) and used as enzyme. As substrate for the kinase reaction the biotinylated peptide biotin-Ahx-IKKRKLTRRKSLKG (C-terminus in amide form) was used, which can be purchased e.g. from the company Biosyntan (Berlin-Buch, Germany).
For the assay 50 nL of a 100 fold concentrated solution of the test compound in DMSO was pipetted into a black low volume 384 well microtiter plate (Greiner Bio-One, Frickenhausen, Germany), 2 μL of a solution of MKNK1 in aqueous assay buffer [50 mM HEPES pH 7.5, 5 mM MgCl2, 1.0 mM dithiothreitol, 0.005% (v/v) Nonidet-P40 (Sigma)] was added and the mixture was incubated for 15 min at 22° C. to allow pre-binding of the test compounds to the enzyme before the start of the kinase reaction. Then the kinase reaction was started by the addition of 3 μL of a solution of adenosine-tri-phosphate (ATP, 3.3 mM=>final conc. in the 5 μL assay volume is 2 mM) and substrate (0.1 μM=>final conc. in the 5 μL assay volume is 0.06 μM) in assay buffer and the resulting mixture was incubated for a reaction time of 30 min at 22° C. The concentration of MKNK1 was adjusted depending of the activity of the enzyme lot and was chosen appropriate to have the assay in the linear range, typical concentrations were in the range of 0.003 μg/mL. The reaction was stopped by the addition of 5 μL of a solution of TR-FRET detection reagents (5 nM streptavidine-XL665 [Cisbio Bioassays, Codolet, France] and 1 nM anti-ribosomal protein S6 (pSer236)-antibody from Invitrogen [#44921G] and 1 nM LANCE EU-W1024 labeled ProteinG [Perkin-Elmer, product no. AD0071]) in an aqueous EDTA-solution (100 mM EDTA, 0.1% (w/v) bovine serum albumin in 50 mM HEPES pH 7.5).
The resulting mixture was incubated for 1 h at 22° C. to allow the formation of complex between the phosphorylated biotinylated peptide and the detection reagents. Subsequently the amount of phosphorylated substrate was evaluated by measurement of the resonance energy transfer from the Eu-chelate to the streptavidine-XL. Therefore, the fluorescence emissions at 620 nm and 665 nm after excitation at 350 nm were measured in a TR-FRET reader, e.g. a Rubystar (BMG Labtechnologies, Offenburg, Germany) or a Viewlux (Perkin-Elmer). The ratio of the emissions at 665 nm and at […] was taken as the measure for the amount of phosphorylated substrate. The data were normalised (enzyme reaction without inhibitor=0% inhibition, all other assay components but no enzyme=100% inhibition).

Chain of human full-length MKNK1 (Q9BUB5 other isoform, or with tags, fused parts or gaps T344D): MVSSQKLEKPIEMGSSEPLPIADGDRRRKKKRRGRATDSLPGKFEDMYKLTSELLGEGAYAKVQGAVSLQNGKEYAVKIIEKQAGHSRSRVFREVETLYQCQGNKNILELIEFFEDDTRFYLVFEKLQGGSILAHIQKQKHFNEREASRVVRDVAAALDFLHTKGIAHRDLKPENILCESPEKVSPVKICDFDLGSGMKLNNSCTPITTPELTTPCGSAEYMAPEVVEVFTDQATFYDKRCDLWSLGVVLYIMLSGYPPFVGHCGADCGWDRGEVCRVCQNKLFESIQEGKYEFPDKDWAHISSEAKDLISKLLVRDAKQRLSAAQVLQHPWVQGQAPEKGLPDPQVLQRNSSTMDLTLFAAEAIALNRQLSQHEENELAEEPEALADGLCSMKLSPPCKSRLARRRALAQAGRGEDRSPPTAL

Structure (SMILES) | IC50
O=C(O)C1CCc2c(sc3ncnc(Nc4ccc5[nH]c(=O)sc5c4)c23)C1 (racemic) [Example 2, (RS)-4-[(2-Oxo-2,3-dihydro-1,3-benzothiazol-6-yl)amino]-5,6,7,8-tetrahydro[1]benzothieno[2,3-d]pyrimidine-7-carboxylic acid] | 108 nM
O=C(C1CCc2c(sc3ncnc(Nc4ccc5[nH]c(=O)sc5c4)c23)C1)N1CCCC(F)C1 (racemic) [Example 65, 6-{[(7RS)-7-{[(3RS)-3-fluoropiperidin-1-yl]carbonyl}-5,6,7,8-tetrahydro[1]benzothieno[2,3-d]pyrimidin-4-yl]amino}-1,3-benzothiazol-2(3H)-one] | 81 nM
O=C(NCC1CCc2c(sc3ncnc(Nc4ccc5[nH]c(=O)sc5c4)c23)C1)[C@@H](O)Cc1ccccc1 (mixture of isomers) [Example 23, (2R)-2-Hydroxy-N-({(7RS)-4-[(2-oxo-2,3-dihydro-1,3-benzothiazol-6-yl)amino]-5,6,7,8-tetrahydro[1]benzothieno[2,3-d]pyrimidin-7-yl}methyl)-3-phenylpropanamide] | 43 nM
O=C(Nc1ccccc1)C1CCc2c(sc3ncnc(Nc4ccc5[nH]c(=O)sc5c4)c23)C1 (racemic) [Example 8, (RS)-4-[(2-Oxo-2,3-dihydro-1,3-benzothiazol-6-yl)amino]-N-phenyl-5,6,7,8-tetrahydro[1]benzothieno[2,3-d]pyrimidine-7-carboxamide] | 33 nM
COCC1CCCN1C(=O)C1CCc2c(sc3ncnc(Nc4ccc5[nH]c(=O)sc5c4)c23)C1 (racemic) [Example 77, 6-{[(7RS)-7-{[(2RS)-2-(methoxymethyl)pyrrolidin-1-yl]carbonyl}-5,6,7,8-tetrahydro[1]benzothieno[2,3-d]pyrimidin-4-yl]amino}-1,3-benzothiazol-2(3H)-one] | 41 nM
CC(=O)N1CCN(C(=O)C2CCc3c(sc4ncnc(Nc5ccc6[nH]c(=O)sc6c5)c34)C2)CC1 (racemic) [Example 47, (RS)-6-({7-[(4-acetylpiperazin-1-yl)carbonyl]-5,6,7,8-tetrahydro[1]benzothieno[2,3-d]pyrimidin-4-yl}amino)-1,3-benzothiazol-2(3H)-one] | 47 nM
CCN(C)C(=O)C1CCc2c(sc3ncnc(Nc4ccc5[nH]c(=O)sc5c4)c23)C1 (racemic) [Example 59, (RS)-N-ethyl-N-methyl-4-[(2-oxo-2,3-dihydro-1,3-benzothiazol-6-yl)amino]-5,6,7,8-tetrahydro[1]benzothieno[2,3-d]pyrimidine-7-carboxamide] | 40 nM
CN(C(=O)C1CCc2c(sc3ncnc(Nc4ccc5[nH]c(=O)sc5c4)c23)C1)C1CCOC(C)(C)C1 (racemic) [Example 80, (RS)-N-(2,2-dimethyltetrahydro-2H-pyran-4-yl)-N-methyl-4-[(2-oxo-2,3-dihydro-1,3-benzothiazol-6-yl)amino]-5,6,7,8-tetrahydro[1]benzothieno[2,3-d]pyrimidine-7-carboxamide] | 42 nM
O=C(C1CCc2c(sc3ncnc(Nc4ccc5[nH]c(=O)sc5c4)c23)C1)N1CC(N2CCCCC2)C1 (racemic) [Example 79, (RS)-6-[(7-{[3-(piperidin-1-yl)azetidin-1-yl]carbonyl}-5,6,7,8-tetrahydro[1]benzothieno[2,3-d]pyrimidin-4-yl)amino]-1,3-benzothiazol-2(3H)-one] | 38 nM
O=C(NCCC(F)(F)F)C1CCc2c(sc3ncnc(Nc4ccc5[nH]c(=O)sc5c4)c23)C1 (racemic) [Example 7, (RS)-4-[(2-Oxo-2,3-dihydro-1,3-benzothiazol-6-yl)amino]-N-(3,3,3-trifluoropropyl)-5,6,7,8-tetrahydro[1]benzothieno[2,3-d]pyrimidine-7-carboxamide] | 42 nM
CNC(=O)C1CCc2c(sc3ncnc(Nc4ccc5[nH]c(=O)sc5c4)c23)C1 (racemic) [Example 11, (RS)—N-Methyl-4-[(2-oxo-2,3-dihydro-1,3-benzothiazol-6-yl)amino]-5,6,7,8-tetrahydro[1]benzothieno[2,3-d]pyrimidine-7-carboxamide] | 91 nM
O=C(C1CCc2c(sc3ncnc(Nc4ccc5[nH]c(=O)sc5c4)c23)C1)N1CCN(c2ccccn2)CC1 (racemic) [Example 40, (RS)-6-[(7-{[4-(pyridin-2-yl)piperazin-1-yl]carbonyl}-5,6,7,8-tetrahydro[1]benzothieno[2,3-d]pyrimidin-4-yl)amino]-1,3-benzothiazol-2(3H)-one] | 65 nM
COCCN1CCN(C(=O)C2CCc3c(sc4ncnc(Nc5ccc6[nH]c(=O)sc6c5)c34)C2)CC1 (racemic) [Example 72, (RS)-6-[(7-{[4-(2-methoxyethyl)piperazin-1-yl]carbonyl}-5,6,7,8-tetrahydro[1]benzothieno[2,3-d]pyrimidin-4-yl)amino]-1,3-benzothiazol-2(3H)-one] | 44 nM
CCNC(=O)C1CCc2c(sc3ncnc(Nc4ccc5[nH]c(=O)sc5c4)c23)C1 (racemic) [Example 3, (RS)—N-Ethyl-4-[(2-oxo-2,3-dihydro-1,3-benzothiazol-6-yl)amino]-5,6,7,8-tetrahydro[1]benzothieno[2,3-d]pyrimidine-7-carboxamide] | 39 nM

The next compounds have a lower IC50 than those just listed; values first:

IC50 | Structure (SMILES)
15 nM | CCOC(=O)C1CCc2c(sc3ncnc(Nc4cc5sc(=O)[nH]c5cc4OC)c23)C1 (racemic) [Example 30, (RS)-Ethyl 4-[(5-methoxy-2-oxo-2,3-dihydro-1,3-benzothiazol-6-yl)amino]-5,6,7,8-tetrahydro[1]benzothieno[2,3-d]pyrimidine-7-carboxylate]
3 nM | CCN(C(=O)C1CCc2c(sc3ncnc(Nc4cc5sc(=O)[nH]c5cc4OC)c23)C1)C(C)C (racemic) [Example 86, (RS)—N-Ethyl-N-isopropyl-4-[(5-methoxy-2-oxo-2,3-dihydro-1,3-benzothiazol-6-yl)amino]-5,6,7,8-tetrahydro[1]benzothieno[2,3-d]pyrimidine-7-carboxamide]
30 nM | COC1CCCN(C(=O)C2CCc3c(sc4ncnc(Nc5ccc6[nH]c(=O)sc6c5)c34)C2)C1 (racemic) [Example 84, 6-{[(7RS)-7-{[(3RS)-3-methoxypiperidin-1-yl]carbonyl}-5,6,7,8-tetrahydro[1]benzothieno[2,3-d]pyrimidin-4-yl]amino}-1,3-benzothiazol-2(3H)-one]
4 nM | COc1cc2[nH]c(=O)sc2cc1Nc1ncnc2sc3c(c12)CCC(C(=O)NC(C)C)C3 (racemic) [Example 31]
21 nM | CCCCN(C)C(=O)C1CCc2c(sc3ncnc(Nc4ccc5[nH]c(=O)sc5c4)c23)C1 (racemic) [Example 41, (RS)-N-butyl-N-methyl-4-[(2-oxo-2,3-dihydro-1,3-benzothiazol-6-yl)amino]-5,6,7,8-tetrahydro[1]benzothieno[2,3-d]pyrimidine-7-carboxamide]
27 nM | CN(CC1CCCO1)C(=O)C1CCc2c(sc3ncnc(Nc4ccc5[nH]c(=O)sc5c4)c23)C1 (racemic) [Example 56, (7RS)-N-methyl-4-[(2-oxo-2,3-dihydro-1,3-benzothiazol-6-yl)amino]-N-[(2RS)-tetrahydrofuran-2-ylmethyl]-5,6,7,8-tetrahydro[1]benzothieno[2,3-d]pyrimidine-7-carboxamide]
9 nM | O=C(NCc1ccccc1)C1CCc2c(sc3ncnc(Nc4ccc5[nH]c(=O)sc5c4)c23)C1 (racemic) [Example 9, (RS)—N-Benzyl-4-[(2-oxo-2,3-dihydro-1,3-benzothiazol-6-yl)amino]-5,6,7,8-tetrahydro[1]benzothieno[2,3-d]pyrimidine-7-carboxamide]
30 nM | COCCN(CCOC)C(=O)C1CCc2c(sc3ncnc(Nc4ccc5[nH]c(=O)sc5c4)c23)C1 (racemic) [Example 52, (RS)-N,N-bis(2-methoxyethyl)-4-[(2-oxo-2,3-dihydro-1,3-benzothiazol-6-yl)amino]-5,6,7,8-tetrahydro[1]benzothieno[2,3-d]pyrimidine-7-carboxamide]
20 nM | CCCCN(CC#N)C(=O)C1CCc2c(sc3ncnc(Nc4ccc5[nH]c(=O)sc5c4)c23)C1 (racemic) [Example 34, (RS)-N-butyl-N-(cyanonmethyl)-4-[(2-oxo-2,3-dihydro-1,3-benzothiazol-6-yl)amino]-5,6,7,8-tetrahydro[1]benzothieno[2,3-d]pyrimidine-7-carboxamide]
